Where two headings read alike, the source gives them in different places. *1 amine or outer side, *2 acyl side, *3 side chain or, on linkers, in order; H or OH if unused. Where a SMILES comes first, the peptide text is derived from it. Where no end group is shown, it is not given here. Side-chain parts run from the residue outwards. [ ]: non-standard residue; d: D form. The star is where a group is joined. Undecanoyl(11-OPh(4-COOH)) = O=C(O)c1ccc(OCCCCCCCCCCC(=O)*)cc1; Decanoyl(10-O(3-COOH-Ph)) = O=C(O)c1cccc(OCCCCCCCCCC(=O)*)c1; γGlu = O=C(O)[C@H](CCC(=O)[*:2])N[*:1]; AEEA = NCCOCCOCC(=O)O; Aib = CC(C)(N)C(=O)O
What was measured:
[1] = target: T1, human GLP-1 receptor (Homo sapiens, UniProt P43220); assay: In vitro potency, CRE luciferase reporter gene assay in BHK cells expressing the human GLP-1 receptor; type: cell-based; settings: average of duplicates;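 note: firefly luciferase luminescence read after 3 h incubation at 37 °C, compounds tested in an eight-point series from 0.01 pM to 100 nM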
T1 construct: expressed in transfected cells; host or cells: membranes from BHK cells, parent line BHKTS13, clone FCW467-12A

[2] = target: T2, human GLP-1 receptor (human, UniProt P43220); assay: displacement of [125I]-GLP-1-(7-36)NH2 from membranes with human GLP-1 receptor, SPA, high HSA (2.0%)
Description: Each derivative is added in a series of concentrations to isolated membranes containing the human GLP-1 receptor and displacement of the labelled ligand is monitored. The receptor binding is reported as the concentration at which half of the labelled ligand is displaced from the receptor, the $IC50$ value.
For the receptor binding assay in the presence of low HSA (0.001%) 50 μl of the assay buffer was added to each well of an assay plate. […] For the receptor binding assay in the presence of high HSA (2.0%) 50 μl of the 8% albumin stock was added to each well of an assay plate. […] Cell membrane aliquots were thawed and diluted to their working concentration. Fifty μl were added to each well in the assay plate. […] WGA SPA beads were suspended in assay buffer at 20 mg/ml. The suspension was diluted to 10 mg/ml in assay buffer just prior to addition to the assay plate. Fifty μl were added to each well in the assay plate. […] A 25 μl aliquot was reserved for measuring total counts/well. […] The assay plate was incubated for 2 h at 30° C. […] The assay plate was centrifuged for 10 min. […] The assay plate was read in a Packard TopCount NXT instrument.

[3] = target: T2, human GLP-1 receptor
Target sequence in this assay (P43220 24-463): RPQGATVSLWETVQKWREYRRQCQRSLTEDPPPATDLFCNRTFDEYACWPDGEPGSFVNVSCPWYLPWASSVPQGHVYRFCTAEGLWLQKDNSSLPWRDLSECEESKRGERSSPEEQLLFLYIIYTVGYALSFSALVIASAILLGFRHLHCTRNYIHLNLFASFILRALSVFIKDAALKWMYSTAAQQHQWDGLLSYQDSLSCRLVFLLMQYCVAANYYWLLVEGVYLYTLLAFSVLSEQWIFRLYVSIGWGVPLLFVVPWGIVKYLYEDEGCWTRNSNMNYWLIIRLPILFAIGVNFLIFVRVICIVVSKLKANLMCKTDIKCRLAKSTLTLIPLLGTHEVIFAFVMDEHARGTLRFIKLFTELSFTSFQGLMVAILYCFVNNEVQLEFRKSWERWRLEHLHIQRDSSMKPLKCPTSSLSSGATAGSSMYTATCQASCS

[4] = EC50/pM (1% HSA), 1% HSA final assay concentration

T1 sequence (P43220 24-463): as above

Row | Molecule | EC50 [1, 4] [pM] | EC50 ([1]; EC50/pM (0% HSA), 0% HSA) [pM] | further results
1 | CC[C@H](C)[C@H](NC(=O)[C@H](Cc1ccccc1)NC(=O)[C@H](CCC(=O)O)NC(=O)[C@H](CCCNC(=N)N)NC(=O)[C@H](C)NC(=O)[C@H](C)NC(=O)[C@H](CCC(N)=O)NC(=O)[C@H](CCC(=O)O)NC(=O)[C@H](CCC(=O)O)NC(=O)[C@H](CC(C)C)NC(=O)[C@H](Cc1ccc(O)cc1)NC(=O)[C@H](CO)NC(=O)[C@H](CO)NC(=O)[C@@H](NC(=O)[C@H](CC(=O)O)NC(=O)[C@H](CO)NC(=O)[C@@H](NC(=O)[C@H](Cc1ccccc1)NC(=O)[C@@H](NC(=O)CNC(=O)[C@H](CCC(=O)O)NC(=O)C(C)(C)NC(=O)[C@@H](N)Cc1c[nH]cn1)[C@@H](C)O)[C@@H](C)O)C(C)C)C(=O)N[C@@H](C)C(=O)N[C@@H](Cc1c[nH]c2ccccc12)C(=O)N[C@@H](CC(C)C)C(=O)N[C@H](C(=O)N[C@@H](CCCNC(=N)N)C(=O)NCC(=O)N[C@@H](CCCCNC(=O)COCCOCCNC(=O)COCCOCCNC(=O)CC[C@H](NC(=O)CC[C@H](NC(=O)CCCCCCCCCCOc1ccc(C(=O)O)cc1)C(=O)O)C(=O)O)C(=O)N[C@@H](CCCCNC(=O)COCCOCCNC(=O)COCCOCCNC(=O)CC[C@H](NC(=O)CC[C@H](NC(=O)CCCCCCCCCCOc1ccc(C(=O)O)cc1)C(=O)O)C(=O)O)C(=O)O)C(C)C [Example 18] | 29 |  | 
2 | CC[C@H](C)[C@H](NC(=O)[C@H](Cc1ccccc1)NC(=O)[C@H](CCC(=O)O)NC(=O)[C@H](CCCNC(=N)N)NC(=O)[C@H](C)NC(=O)[C@H](C)NC(=O)[C@H](CCC(N)=O)NC(=O)[C@H](CCC(=O)O)NC(=O)[C@H](CCC(=O)O)NC(=O)[C@H](CC(C)C)NC(=O)[C@H](Cc1ccc(O)cc1)NC(=O)[C@H](CO)NC(=O)[C@H](CO)NC(=O)[C@@H](NC(=O)[C@H](CC(=O)O)NC(=O)[C@H](CO)NC(=O)[C@@H](NC(=O)[C@H](Cc1ccccc1)NC(=O)[C@@H](NC(=O)CNC(=O)[C@H](CCC(=O)O)NC(=O)C(C)(C)NC(=O)[C@@H](N)Cc1c[nH]cn1)[C@@H](C)O)[C@@H](C)O)C(C)C)C(=O)N[C@@H](CCC(=O)O)C(=O)N[C@@H](Cc1c[nH]c2ccccc12)C(=O)N[C@@H](CC(C)C)C(=O)N[C@H](C(=O)N[C@@H](CCCNC(=N)N)C(=O)NCC(=O)N[C@@H](CCCCNC(=O)COCCOCCNC(=O)COCCOCCNC(=O)CC[C@H](NC(=O)CCCCCCCCCOc1cccc(C(=O)O)c1)C(=O)O)C(=O)N[C@@H](CCCCNC(=O)COCCOCCNC(=O)COCCOCCNC(=O)CC[C@H](NC(=O)CCCCCCCCCOc1cccc(C(=O)O)c1)C(=O)O)C(=O)O)C(C)C [Example 27, N{Epsilon-36}-[2-[2-[2-[[2-[2-[2-[[(4S)-4-carboxy-4-[10-(3-carboxyphenoxy)decanoylamino]butanoyl]amino]ethoxy]ethoxy]acetyl]amino]ethoxy]ethoxy]acetyl], N{Epsilon-37}-[2-[2-[2-[[2-[2-[2-[[(4S)-4-carboxy-4-[10-(3-carboxyphenoxy)decanoylamino]butanoyl]amino]ethoxy]ethoxy]acetyl]amino]ethoxy]ethoxy]acetyl]-[Aib8,Glu22,Arg26,Glu30,Arg34,Lys36,Lys37]-GLP-1-(7-37)-peptide] | 105 | 13 | 
3 | CC[C@H](C)[C@H](NC(=O)[C@H](Cc1ccccc1)NC(=O)[C@H](CCC(=O)O)NC(=O)[C@H](CCCNC(=N)N)NC(=O)[C@H](C)NC(=O)[C@H](C)NC(=O)[C@H](CCC(N)=O)NC(=O)[C@H](CCC(=O)O)NC(=O)[C@H](CCC(=O)O)NC(=O)[C@H](CC(C)C)NC(=O)[C@H](Cc1ccc(O)cc1)NC(=O)[C@H](CO)NC(=O)[C@H](CO)NC(=O)[C@@H](NC(=O)[C@H](CC(=O)O)NC(=O)[C@H](CO)NC(=O)[C@@H](NC(=O)[C@H](Cc1ccccc1)NC(=O)[C@@H](NC(=O)CNC(=O)[C@H](CCC(=O)O)NC(=O)C(C)(C)NC(=O)[C@@H](N)Cc1c[nH]cn1)[C@@H](C)O)[C@@H](C)O)C(C)C)C(=O)N[C@@H](CCC(=O)O)C(=O)N[C@@H](Cc1c[nH]c2ccccc12)C(=O)N[C@@H](CC(C)C)C(=O)N[C@H](C(=O)N[C@@H](CCCNC(=N)N)C(=O)NCC(=O)N[C@@H](CCCCNC(=O)COCCOCCNC(=O)COCCOCCNC(=O)COCCOCCNC(=O)COCCOCCNC(=O)CC[C@H](NC(=O)CCCCCCCCCOc1cccc(C(=O)O)c1)C(=O)O)C(=O)N[C@@H](CCCCNC(=O)COCCOCCNC(=O)COCCOCCNC(=O)COCCOCCNC(=O)COCCOCCNC(=O)CC[C@H](NC(=O)CCCCCCCCCOc1cccc(C(=O)O)c1)C(=O)O)C(=O)O)C(C)C [Example 28] | 25 | 12 | 
4 | CC[C@H](C)[C@H](NC(=O)[C@H](Cc1ccccc1)NC(=O)[C@H](CCC(=O)O)NC(=O)[C@H](CCCNC(=N)N)NC(=O)[C@H](C)NC(=O)[C@H](C)NC(=O)[C@H](CCC(N)=O)NC(=O)[C@H](CCC(=O)O)NC(=O)[C@H](CCC(=O)O)NC(=O)[C@H](CC(C)C)NC(=O)[C@H](Cc1ccc(O)cc1)NC(=O)[C@H](CO)NC(=O)[C@H](CO)NC(=O)[C@@H](NC(=O)[C@H](CC(=O)O)NC(=O)[C@H](CO)NC(=O)[C@@H](NC(=O)[C@H](Cc1ccccc1)NC(=O)[C@@H](NC(=O)CNC(=O)[C@H](CCC(=O)O)NC(=O)C(C)(C)NC(=O)[C@@H](N)Cc1c[nH]cn1)[C@@H](C)O)[C@@H](C)O)C(C)C)C(=O)N[C@@H](C)C(=O)N[C@@H](Cc1c[nH]c2ccccc12)C(=O)N[C@@H](CC(C)C)C(=O)N[C@H](C(=O)N[C@@H](CCCNC(=N)N)C(=O)NCC(=O)N[C@@H](CCCCNC(=O)COCCOCCNC(=O)COCCOCCNC(=O)COCCOCCNC(=O)COCCOCCNC(=O)CC[C@H](NC(=O)CCCCCCCCCOc1cccc(C(=O)O)c1)C(=O)O)C(=O)N[C@@H](CCCCNC(=O)COCCOCCNC(=O)COCCOCCNC(=O)COCCOCCNC(=O)COCCOCCNC(=O)CC[C@H](NC(=O)CCCCCCCCCOc1cccc(C(=O)O)c1)C(=O)O)C(=O)O)C(C)C [Example 22] | 7.7 | 1.8 | 
5 | CC[C@H](C)[C@H](NC(=O)[C@H](Cc1ccccc1)NC(=O)[C@H](CCC(=O)O)NC(=O)[C@H](CCCNC(=N)N)NC(=O)[C@H](C)NC(=O)[C@H](C)NC(=O)[C@H](CCC(N)=O)NC(=O)[C@H](CCC(=O)O)NC(=O)[C@H](CCC(=O)O)NC(=O)[C@H](CC(C)C)NC(=O)[C@H](Cc1ccc(O)cc1)NC(=O)[C@H](CO)NC(=O)[C@H](CO)NC(=O)[C@@H](NC(=O)[C@H](CC(=O)O)NC(=O)[C@H](CO)NC(=O)[C@@H](NC(=O)[C@H](Cc1ccccc1)NC(=O)[C@@H](NC(=O)CNC(=O)[C@H](CCC(=O)O)NC(=O)CNC(=O)[C@@H](N)Cc1c[nH]cn1)[C@@H](C)O)[C@@H](C)O)C(C)C)C(=O)N[C@@H](C)C(=O)N[C@@H](Cc1c[nH]c2ccccc12)C(=O)N[C@@H](CC(C)C)C(=O)N[C@H](C(=O)N[C@@H](CCCNC(=N)N)C(=O)NCC(=O)N[C@@H](CCCCNC(=O)COCCOCCNC(=O)COCCOCCNC(=O)CC[C@H](NC(=O)CCCCCCCCCCOc1ccc(C(=O)O)cc1)C(=O)O)C(=O)N[C@@H](CCCCNC(=O)COCCOCCNC(=O)COCCOCCNC(=O)CC[C@H](NC(=O)CCCCCCCCCCOc1ccc(C(=O)O)cc1)C(=O)O)C(=O)O)C(C)C [Example 17, N{Epsilon-36}-[2-[2-[2-[[2-[2-[2-[[(4S)-4-carboxy-4-[11-(4-carboxyphenoxy)undecanoylamino]butanoyl]amino]ethoxy]ethoxy]acetyl]amino]ethoxy]ethoxy]acetyl], N{Epsilon-37}-[2-[2-[2-[[2-[2-[2-[[(4S)-4-carboxy-4-[11-(4-carboxyphenoxy)undecanoylamino]butanoyl]amino]ethoxy]ethoxy]acetyl]amino]ethoxy]ethoxy]acetyl]-[Gly8,Glu22,Arg26,Arg34,Lys36,Lys37]-GLP-1-(7-37)-peptide] (H-HGEGTFTSDVSSYLEEQAAREFIAWLVRGK([AEEA-AEEA-γGlu-Undecanoyl(11-OPh(4-COOH))])K([AEEA-AEEA-γGlu-Undecanoyl(11-OPh(4-COOH))])-OH; N-terminus and C-terminus assumed) | 199 | 14 | 
6 | CC[C@H](C)[C@H](NC(=O)[C@H](Cc1ccccc1)NC(=O)[C@H](CCC(=O)O)NC(=O)[C@H](CCCNC(=N)N)NC(=O)[C@H](C)NC(=O)[C@H](C)NC(=O)[C@H](CCC(N)=O)NC(=O)[C@H](CCC(=O)O)NC(=O)[C@H](CCC(=O)O)NC(=O)[C@H](CC(C)C)NC(=O)[C@H](Cc1ccc(O)cc1)NC(=O)[C@H](CO)NC(=O)[C@H](CO)NC(=O)[C@@H](NC(=O)[C@H](CC(=O)O)NC(=O)[C@H](CO)NC(=O)[C@@H](NC(=O)[C@H](Cc1ccccc1)NC(=O)[C@@H](NC(=O)CNC(=O)[C@H](CCC(=O)O)NC(=O)C(C)(C)NC(=O)[C@@H](N)Cc1c[nH]cn1)[C@@H](C)O)[C@@H](C)O)C(C)C)C(=O)N[C@@H](C)C(=O)N[C@@H](Cc1c[nH]c2ccccc12)C(=O)N[C@@H](CC(C)C)C(=O)N[C@H](C(=O)N[C@@H](CCCNC(=N)N)C(=O)NCC(=O)N[C@@H](CCCCNC(=O)COCCOCCNC(=O)COCCOCCNC(=O)CC[C@H](NC(=O)CC[C@H](NC(=O)CCCCCCCCCCCCC(=O)O)C(=O)O)C(=O)O)C(=O)N[C@@H](CCCCNC(=O)COCCOCCNC(=O)COCCOCCNC(=O)CC[C@H](NC(=O)CC[C@H](NC(=O)CCCCCCCCCCCCC(=O)O)C(=O)O)C(=O)O)C(=O)O)C(C)C [Example 21] | 13 |  | EC50 ([1]; 0% HSA, read-out: EC50/pM (0% HSA)): 5.6 pM
7 | H[Aib]EGTFTSDVSSYLEEQAAREFIAWLVRGK([AEEA-AEEA-AEEA-AEEA-γGlu-Decanoyl(10-O(3-COOH-Ph))])K([AEEA-AEEA-AEEA-AEEA-γGlu-Decanoyl(10-O(3-COOH-Ph))]) [GLP-1 derivative of Example 22] |  |  | IC50 [2]: 45000 pM; EC50/pM (0% HSA) [3]: 1.8 pM; EC50/pM (1% HSA) [3]: 7.7 pM
8 | H[Aib]EGTFTSDVSSYLEEQAAREFIAWLVRGK([AEEA-AEEA-γGlu-γGlu-Undecanoyl(11-OPh(4-COOH))])K([AEEA-AEEA-γGlu-γGlu-Undecanoyl(11-OPh(4-COOH))]) [GLP-1 derivative of Example 18] |  |  | EC50/pM (0% HSA) [3]: 0.8 pM; EC50/pM (1% HSA) [3]: 29 pM
